Key:
[1] = system: human lung cancer strain NCI-H441; assay: cells; conditions: NCI-H441, 96 h, read-out: NCI-H441 IC50 (nM), NCI-H441 cell proliferation, 4 days, CellTiter-Glo;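 note: cell proliferation inhibition after four days measured by CellTiter-Glo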
[2] = target: GDP-bound HRAS wild-type protein (Homo sapiens, UniProt P01112); assay: Binding to HRAS by surface plasmon resonance (SPR), Single Cycle Kinetics; conditions: ratio of KD for GDP-bound HRAS wild-type protein to KD for KRAS, SPR
[3] = target: GDP-bound KRAS wild-type protein (Homo sapiens, UniProt P01116); assay: Binding to KRAS by surface plasmon resonance (SPR), Single Cycle Kinetics; conditions: SPR, Single Cycle Kinetics, GDP-bound KRAS wild-type protein; read-out: KRAS KD
[4] = target: GDP-bound NRAS wild-type protein (Homo sapiens, UniProt P01111); assay: Binding to NRAS by surface plasmon resonance (SPR), Single Cycle Kinetics; conditions: ratio of KD for GDP-bound NRAS wild-type protein to KD for KRAS, SPR
Sequence of GDP-bound NRAS wild-type protein (P01111 whole entry): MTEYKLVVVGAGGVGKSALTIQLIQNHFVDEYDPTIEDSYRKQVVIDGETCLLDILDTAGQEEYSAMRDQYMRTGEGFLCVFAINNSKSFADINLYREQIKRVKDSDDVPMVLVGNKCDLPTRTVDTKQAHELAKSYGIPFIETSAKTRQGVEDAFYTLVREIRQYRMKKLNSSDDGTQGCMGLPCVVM

Sequence of GDP-bound KRAS wild-type protein (P01116 whole entry): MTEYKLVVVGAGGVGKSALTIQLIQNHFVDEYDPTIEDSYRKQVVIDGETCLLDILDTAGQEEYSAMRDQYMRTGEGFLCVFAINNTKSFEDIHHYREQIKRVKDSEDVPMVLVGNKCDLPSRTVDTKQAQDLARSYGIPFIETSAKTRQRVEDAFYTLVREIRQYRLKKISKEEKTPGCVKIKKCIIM
Sequence of GDP-bound HRAS wild-type protein (P01112 whole entry): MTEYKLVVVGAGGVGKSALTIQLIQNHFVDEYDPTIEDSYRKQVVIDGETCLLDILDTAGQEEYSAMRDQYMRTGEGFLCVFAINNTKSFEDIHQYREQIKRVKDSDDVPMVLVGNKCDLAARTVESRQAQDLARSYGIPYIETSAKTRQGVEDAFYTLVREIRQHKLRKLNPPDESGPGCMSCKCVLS

SMILES	IC50 [1] [nM]	Kd [3] [nM]	HRAS/KRAS (KD ratio) [2]	NRAS/KRAS (KD ratio) [4]
CCC[C@H]1C(=O)N[C@@H]([C@@H](C)CC)C(=O)N(CCC)CC(=O)N(C)[C@H]2C/C=C\CCN(C2=O)[C@@H](Cc2ccc(C(F)(F)F)cc2)C(=O)N(C)CC(=O)N[C@@H](CCc2cc(F)c(C(F)(F)F)c(F)c2)C(=O)N2C[C@H](OCC)C[C@H]2C(=O)NC2(CCC2)C(=O)N(C)[C@@H](C2CCCC2)C(=O)N(C)[C@H](C(=O)N(C)C)CC(=O)N1C [PP1767]	17.9	0.34	B (a compound having 3 or more and less than 10 is denoted as B)	A (a compound having 10 or more and less than 20 is denoted as A)
CCO[C@@H]1C[C@H]2C(=O)NC3(CC(C)(C)C3)C(=O)N(C)[C@@H](C3CCCC3)C(=O)N(C)[C@H](C(=O)N(C)C)CC(=O)N3CCCCC[C@H]3C(=O)N[C@@H]([C@@H](C)CC)C(=O)N(C)CC(=O)N(C)[C@H]3C/C=C\CCN(C3=O)[C@@H](Cc3ccc(C(F)(F)F)cc3)C(=O)N(C)CC(=O)N[C@@H](CCc3cc(F)c(C(F)(F)F)c(F)c3)C(=O)N2C1 [PP1915]	18.5	0.31	A (a compound having 10 or more and less than 20 is denoted as A)	A (a compound having 10 or more and less than 20 is denoted as A)
CC[C@H](C)[C@@H]1NC(=O)[C@H](CC(F)(F)F)N(C)C(=O)C[C@@H](C(=O)N(C)C)N(C)C(=O)[C@H](C2CCCC2)N(C)C(=O)C2(CC(C)(C)C2)NC(=O)[C@@H]2CCCN2C(=O)[C@H](CCc2cc(F)c(C(F)(F)F)c(F)c2)NC(=O)CN(C)C(=O)[C@H](Cc2ccc(C(F)(F)F)cc2)N2CC/C=C\C[C@@H](C2=O)N(C)C(=O)CN(C)C1=O [PP1722]	1.8	0.06	A (a compound having 10 or more and less than 20 is denoted as A)	AA (a compound having 20 or more is denoted as AA)
CC[C@H](C)[C@@H]1NC(=O)[C@H](CC(F)(F)F)N(C)C(=O)C[C@@H](C(=O)N(C)C)N(C)C(=O)[C@H](C2CCCC2)N(C)C(=O)C2(CC(C)(C)C2)NC(=O)[C@@H]2CC(F)(F)CN2C(=O)[C@H](CCc2cc(F)c(C(F)(F)F)c(F)c2)NC(=O)CN(C)C(=O)[C@H](Cc2ccc(C(F)(F)F)cc2)N2CC/C=C\C[C@@H](C2=O)N(C)C(=O)CN(C)C1=O [PP1710]	4.1	0.1	B (a compound having 3 or more and less than 10 is denoted as B)	A (a compound having 10 or more and less than 20 is denoted as A)
CCO[C@@H]1C[C@H]2C(=O)NC3(CC(C)(C)C3)C(=O)N(C)[C@@H](C3CCCC3)C(=O)N(C)[C@H](C(=O)N(C)C)CC(=O)N(C)[C@@H](CC(C)C)C(=O)N[C@@H]([C@@H](C)CC)C(=O)N(C)CC(=O)N(C)[C@H]3C/C=C\CCN(C3=O)[C@@H](Cc3ccc(C(F)(F)F)cc3)C(=O)N(C)CC(=O)N[C@@H](CCc3cc(F)c(Cl)c(F)c3)C(=O)N2C1 [PP1761]	5.2	0.17	A (a compound having 10 or more and less than 20 is denoted as A)	A (a compound having 10 or more and less than 20 is denoted as A)
CCO[C@@H]1C[C@H]2C(=O)NC3(CCC3)C(=O)N(C)[C@@H](C3CCCC3)C(=O)N(C)[C@H](C(=O)N(C)C)CC(=O)N(CC)[C@@H](CC(C)C)C(=O)N[C@@H]([C@@H](C)CC)C(=O)N(C)CC(=O)N(C)[C@H]3C/C=C\CCN(C3=O)[C@@H](Cc3ccc(C(F)(F)F)cc3)C(=O)N(C)CC(=O)N[C@@H](CCc3cc(F)c(C(F)(F)F)c(F)c3)C(=O)N2C1 [PP1765]	16.8	0.084	A (a compound having 10 or more and less than 20 is denoted as A)	A (a compound having 10 or more and less than 20 is denoted as A)
CCCC[C@H]1C(=O)N[C@@H]([C@@H](C)CC)C(=O)N(C)CC(=O)N(C)[C@H]2C/C=C\CCN(C2=O)[C@@H](Cc2ccc(C(F)(F)F)cc2)C(=O)N(C)CC(=O)N[C@@H](CCc2cc(F)c(C(F)(F)F)c(F)c2)C(=O)N2C[C@H](OCC)C[C@H]2C(=O)NC2(CCC2)C(=O)N(C)[C@@H](C2CCCC2)C(=O)N(C)[C@H](C(=O)N(C)CCC)CC(=O)N1C [PP1704]	10.3	0.14	A (a compound having 10 or more and less than 20 is denoted as A)	A (a compound having 10 or more and less than 20 is denoted as A)
CC[C@H](C)[C@@H]1NC(=O)[C@H](CC2CCC2)N(C)C(=O)C[C@@H](C(=O)N(C)C)N(C)C(=O)[C@H](C2CCCC2)N(C)C(=O)C2(CC(C)(C)C2)NC(=O)[C@@H]2C[C@H](C)CN2C(=O)[C@H](CCc2cc(F)c(C(F)(F)F)c(F)c2)NC(=O)CN(C)C(=O)[C@H](Cc2ccc(C(F)(F)F)cc2)N2CC/C=C\C[C@@H](C2=O)N(C)C(=O)CN(C)C1=O [PP1684]	7.7	0.15	A (a compound having 10 or more and less than 20 is denoted as A)	A (a compound having 10 or more and less than 20 is denoted as A)
CC[C@H](C)[C@@H]1NC(=O)[C@H](CC)N(C)C(=O)C[C@@H](C(=O)N(C)C)N(C)C(=O)[C@H](C2CCCC2)N(C)C(=O)C2(CCCC2)N(C)C(=O)[C@@H]2C[C@@H](C)CN2C(=O)[C@H](CCc2cc(F)c(C(F)(F)F)c(F)c2)NC(=O)CN(C)C(=O)[C@H](Cc2ccc(C)cc2)N2CC/C=C\C[C@@H](C2=O)N(C)C(=O)CN(C)C1=O [PP1812]	7.8	0.059	A (a compound having 10 or more and less than 20 is denoted as A)	A (a compound having 10 or more and less than 20 is denoted as A)
CCC[C@H]1C(=O)N[C@@H]([C@@H](C)CC)C(=O)N(C)CC(=O)N(C)[C@H]2C/C=C\CCN(C2=O)[C@@H](Cc2ccc(C)cc2)C(=O)N(C)CC(=O)N[C@@H](CCc2cc(F)c(C(F)(F)F)c(F)c2)C(=O)N2C[C@H](C)C[C@H]2C(=O)N(C)C2(CCC2)C(=O)N(C)[C@@H](C2CCCC2)C(=O)N(C)[C@H](C(=O)N(C)C)CC(=O)N1C [PP1799]	7.6	0.068	B (a compound having 3 or more and less than 10 is denoted as B)	B (a compound having 3 or more and less than 10 is denoted as B)

More lines, main results first:

IC50 [1] [nM]	Kd [3] [nM]	SMILES	HRAS/KRAS (KD ratio) [2]	NRAS/KRAS (KD ratio) [4]
22.9	0.25	CCO[C@@H]1C[C@H]2C(=O)NC3(CC(F)(F)C3)C(=O)N(C)[C@@H](C3CCCC3)C(=O)N(C)[C@H](CC)CC(=O)N(C)[C@@H](CC)C(=O)N[C@@H]([C@@H](C)CC)C(=O)N(C)CC(=O)N(C)[C@H]3C/C=C\CCN(C3=O)[C@@H](Cc3ccc(C(F)(F)F)cc3)C(=O)N(C)CC(=O)N[C@@H](CCc3cc(F)c(C(F)(F)F)c(F)c3)C(=O)N2C1 [PP1627]	A (a compound having 10 or more and less than 20 is denoted as A)	A (a compound having 10 or more and less than 20 is denoted as A)
2.5	0.095	CCCN(C)C(=O)[C@@H]1CC(=O)N(C)[C@@H](CC)C(=O)N[C@@H]([C@@H](C)CC)C(=O)N(C)CC(=O)N(C)[C@H]2C/C=C\CCN(C2=O)[C@@H](Cc2ccc(C(F)(F)F)cc2)C(=O)N(C)CC(=O)N[C@@H](CCc2cc(F)c(C(F)(F)F)c(F)c2)C(=O)N2C[C@H](OCC)C[C@H]2C(=O)NC2(CCC2)C(=O)N(C)[C@@H](C2CCCC2)C(=O)N1C [PP1699]	A (a compound having 10 or more and less than 20 is denoted as A)	A (a compound having 10 or more and less than 20 is denoted as A)
6	0.087	CCCN(C)C(=O)[C@@H]1CC(=O)N(C)[C@@H](COC)C(=O)N[C@@H]([C@@H](C)CC)C(=O)N(C)CC(=O)N(C)[C@H]2C/C=C\CCN(C2=O)[C@@H](Cc2ccc(C(F)(F)F)cc2)C(=O)N(C)CC(=O)N[C@@H](CCc2cc(F)c(C(F)(F)F)c(F)c2)C(=O)N2C[C@H](OCC)C[C@H]2C(=O)NC2(CC(C)(C)C2)C(=O)N(C)[C@@H](C2CCCC2)C(=O)N1C [PP1672]	A (a compound having 10 or more and less than 20 is denoted as A)	A (a compound having 10 or more and less than 20 is denoted as A)
2.2	0.081	CCC[C@H]1C(=O)N[C@@H]([C@@H](C)CC)C(=O)N(C)CC(=O)N(C)[C@H]2C/C=C\CCN(C2=O)[C@@H](Cc2ccc(C(F)(F)F)cc2)C(=O)N(C)CC(=O)N[C@@H](CCc2cc(F)c(C(F)(F)F)c(F)c2)C(=O)N2C[C@H](OCC)C[C@H]2C(=O)NC2(CC(F)(F)C2)C(=O)N(C)[C@@H](C2CCCC2)C(=O)N(C)[C@H](C(=O)N(C)CC)CC(=O)N1C [PP1735]	A (a compound having 10 or more and less than 20 is denoted as A)	AA (a compound having 20 or more is denoted as AA)
6.7	0.1	CCCN(C)C(=O)[C@@H]1CC(=O)N(C)[C@@H](CC)C(=O)N[C@@H]([C@@H](C)CC)C(=O)N(C)CC(=O)N(C)[C@H]2C/C=C\CCN(C2=O)[C@@H](Cc2ccc(C(F)(F)F)cc2)C(=O)N(C)CC(=O)N[C@@H](CCc2cc(F)c(C(F)(F)F)c(F)c2)C(=O)N2C[C@H](OCC)C[C@H]2C(=O)NC2(CC(C)(C)C2)C(=O)N(C)[C@@H](C2CCCC2)C(=O)N1C [PP1670]	A (a compound having 10 or more and less than 20 is denoted as A)	A (a compound having 10 or more and less than 20 is denoted as A)

Source: patent US20240158446A1, “CYCLIC COMPOUND HAVING SELECTIVE INHIBITORY ACTION ON KRAS OVER HRAS AND NRAS” (CHUGAI SEIYAKU KABUSHIKI KAISHA, priority 2021, published 2024)
